Measurements published in patent US20250312352A1, “GLP-1R MODULATING COMPOUNDS” (Gilead Sciences, Inc., priority 2021, published 2025).

Molecular target: T1, GLP-1R (Homo sapiens, UniProt P43220)
T1 construct: host or cells: CHO cells
Experiment: GLP-1R activation cAMP assay (Assay 1 or Assay 2)
Format: cell-based
Details: cAMP increase in CHO cells stably expressing GLP-1R; compounds run on one of the two cAMP assays
Procedure, shortened: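 CHO cells stably expressing human GLP-1R were incubated 1 h in HBSS/20 mM HEPES/0.1% BSA, then exposed to 10-point agonist dilutions for 30 min at 37 °C. cAMP increase was measured with an HTRF Gs dynamic kit; EC50 from sigmoidal fit of response versus log concentration.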

T1 sequence (P43220 24-463): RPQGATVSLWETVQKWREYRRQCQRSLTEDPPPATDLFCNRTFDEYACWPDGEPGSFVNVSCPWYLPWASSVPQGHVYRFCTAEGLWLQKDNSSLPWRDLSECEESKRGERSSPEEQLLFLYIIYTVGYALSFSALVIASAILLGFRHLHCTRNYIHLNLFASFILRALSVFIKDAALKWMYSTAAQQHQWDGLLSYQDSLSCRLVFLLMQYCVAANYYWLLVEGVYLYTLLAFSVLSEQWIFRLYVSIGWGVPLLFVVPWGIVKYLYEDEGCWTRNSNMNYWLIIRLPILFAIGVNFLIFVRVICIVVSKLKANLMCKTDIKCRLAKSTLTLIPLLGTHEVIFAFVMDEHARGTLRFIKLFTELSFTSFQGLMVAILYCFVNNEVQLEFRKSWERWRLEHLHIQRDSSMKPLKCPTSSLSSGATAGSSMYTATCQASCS

SMILES | EC50 [nM]
Cn1nccc1C#Cc1ccc(COc2cccc(-c3cc(F)c(Cc4nc5ccc(C(=O)O)cc5n4C[C@@H]4CCO4)cc3F)n2)c(F)c1 [Example 135, (S)-2-(2,5-difluoro-4-(6-((2-fluoro-4-((1-methyl-1H-pyrazol-5-yl)ethynyl)benzyl)oxy)pyridin-2-yl)benzyl)-1-(oxetan-2-ylmethyl)-1H-benzo[d]imidazole-6-carboxylic acid] | 0.34
O=C(O)c1ccc2nc(Cc3cc(F)c(-c4cccc(OCc5ccn(C(F)(F)F)n5)n4)cc3F)n(C[C@@H]3CCO3)c2c1 [Example 12, (S)-2-(2,5-difluoro-4-(6-((1-(trifluoromethyl)-1H-pyrazol-3-yl)methoxy)pyridin-2-yl)benzyl)-1-(oxetan-2-ylmethyl)-1H-benzo[d]imidazole-6-carboxylic acid] | 1.16
Cn1nccc1-c1cnc(COc2cccc(-c3cc(F)c(Cc4nc5ccc(C(=O)O)cc5n4C[C@@H]4CCO4)cc3F)n2)s1 [Example 94, (S)-2-(2,5-difluoro-4-(6-((5-(1-methyl-1H-pyrazol-5-yl)thiazol-2-yl)methoxy)pyridin-2-yl)benzyl)-1-(oxetan-2-ylmethyl)-1H-benzo[d]imidazole-6-carboxylic acid] | 2.87
N#CCNC(=O)c1ccc(COc2cccc(-c3cc(F)c(Cc4nc5ccc(C(=O)O)cc5n4C[C@@H]4CCO4)cc3F)n2)cn1 [Example 175, (S)-2-(4-(6-((6-((cyanomethyl)carbamoyl)pyridin-3-yl)methoxy)pyridin-2-yl)-2,5-difluorobenzyl)-1-(oxetan-2-ylmethyl)-1H-benzo[d]imidazole-6-carboxylic acid] | 0.11
Cc1nnc(COc2cccc(-c3cc(F)c(Cc4nc5ccc(C(=O)O)cc5n4[C@@H]4COCC4(C)C)c(F)c3F)n2)s1 (single isomer, unassigned) [Example 281A] | 0.27
O=C(O)c1ccc2nc(Cc3cc(F)c(-c4cccc(OCc5ccc(-c6cn(C7COC7)nn6)cc5F)n4)cc3F)n(C[C@@H]3CCO3)c2c1 [Example 215, (S)-2-(2,5-difluoro-4-(6-((2-fluoro-4-(1-(oxetan-3-yl)-1H-1,2,3-triazol-4-yl)benzyl)oxy)pyridin-2-yl)benzyl)-1-(oxetan-2-ylmethyl)-1H-benzo[d]imidazole-6-carboxylic acid] | 0.18
CCOc1nnc(COc2nc(-c3cc(Cl)c(Cc4nc5ccc(C(=O)O)cc5n4[C@@H]4COCC4(C)C)cc3C)ccc2F)s1 [Example 420, (S)-2-(2-chloro-4-(6-((5-ethoxy-1,3,4-thiadiazol-2-yl)methoxy)-5-fluoropyridin-2-yl)-5-methylbenzyl)-1-(4,4-dimethyltetrahydrofuran-3-yl)-1H-benzo[d]imidazole-6-carboxylic acid] | 0.178
CC1(C#Cc2cnc(COc3cccc(-c4cc(F)c(Cc5nc6ccc(C(=O)O)cc6n5C[C@@H]5CCO5)cc4F)n3)s2)CC1 [Example 329, (S)-2-(2,5-difluoro-4-(6-((5-((1-methylcyclopropyl)ethynyl)thiazol-2-yl)methoxy)pyridin-2-yl)benzyl)-1-(oxetan-2-ylmethyl)-1H-benzo[d]imidazole-6-carboxylic acid] | 0.226
COc1nnc(COc2cccc(-c3ccc(Cc4nc5ccc(C(=O)O)cc5n4[C@@H]4COCC4(C)C)c(F)c3)n2)s1 [Example 401, (S)-1-(4,4-dimethyltetrahydrofuran-3-yl)-2-(2-fluoro-4-(6-((5-methoxy-1,3,4-thiadiazol-2-yl)methoxy)pyridin-2-yl)benzyl)-1H-benzo[d]imidazole-6-carboxylic acid] | 0.487
O=C(O)c1ccc2nc(Cc3cc(F)c(-c4cccc(OCc5cc6ccccn6n5)n4)cc3F)n(C[C@@H]3CCO3)c2c1 [Example 28, (S)-2-(2,5-difluoro-4-(6-(pyrazolo[1,5-a]pyridin-2-ylmethoxy)pyridin-2-yl)benzyl)-1-(oxetan-2-ylmethyl)-1H-benzo[d]imidazole-6-carboxylic acid] | 0.44
CNC(=O)c1cc(Cl)c(COc2cccc(-c3ccc(Cc4nc5ccc(C(=O)O)cc5n4CC4(CF)CC4)c(F)c3)n2)cn1 [Example 402, 2-(4-(6-((4-chloro-6-(methylcarbamoyl)pyridin-3-yl)methoxy)pyridin-2-yl)-2-fluorobenzyl)-1-((1-(fluoromethyl)cyclopropyl)methyl)-1H-benzo[d]imidazole-6-carboxylic acid] | 0.208
O=C(O)c1ccc2nc(Cc3cc(F)c(-c4cccc(OCc5ncc(OCC(F)F)s5)n4)cc3F)n(C[C@@H]3CCO3)c2c1 [Example 56, (S)-2-(4-(6-((5-(2,2-difluoroethoxy)thiazol-2-yl)methoxy)pyridin-2-yl)-2,5-difluorobenzyl)-1-(oxetan-2-ylmethyl)-1H-benzo[d]imidazole-6-carboxylic acid] | 7.19

Next, values leading:

EC50 [nM] | SMILES
0.25 | Cn1cncc1C#Cc1ccc(COc2cccc(-c3cc(F)c(Cc4nc5ccc(C(=O)O)cc5n4C[C@@H]4CCO4)cc3F)n2)c(F)c1 [Example 142, (S)-2-(2,5-difluoro-4-(6-((2-fluoro-4-((1-methyl-1H-imidazol-5-yl)ethynyl)benzyl)oxy)pyridin-2-yl)benzyl)-1-(oxetan-2-ylmethyl)-1H-benzo[d]imidazole-6-carboxylic acid]
0.83 | Cn1nc(COc2cccc(-c3cc(F)c(Cc4nc5ccc(C(=O)O)cc5n4C[C@@H]4CCO4)cc3F)n2)cc1C(F)F [Example 40, (S)-2-(4-(6-((5-(difluoromethyl)-1-methyl-1H-pyrazol-3-yl)methoxy)pyridin-2-yl)-2,5-difluorobenzyl)-1-(oxetan-2-ylmethyl)-1H-benzo[d]imidazole-6-carboxylic acid]
0.31 | N#Cc1ccc(COc2cccc(-c3cc(F)c(Cc4nc5ccc(C(=O)O)cc5n4C[C@@H]4CCO4)cc3F)n2)s1 [Example 126, (S)-2-(4-(6-((5-cyanothiophen-2-yl)methoxy)pyridin-2-yl)-2,5-difluorobenzyl)-1-(oxetan-2-ylmethyl)-1H-benzo[d]imidazole-6-carboxylic acid]
1.1 | NC(=O)c1ccc(COc2nccc(-c3cc(F)c(Cc4nc5ccc(C(=O)O)cc5n4C[C@@H]4CCO4)cc3F)n2)c(F)c1 [Example 203, (S)-2-(4-(2-((4-carbamoyl-2-fluorobenzyl)oxy)pyrimidin-4-yl)-2,5-difluorobenzyl)-1-(oxetan-2-ylmethyl)-1H-benzo[d]imidazole-6-carboxylic acid]
0.017 | CNC(=O)c1cc(Cl)c(COc2cccc(-c3cc(F)c(Cc4nc5c(F)cc(C(=O)O)cc5n4CC4(CF)CC4)c(F)c3F)n2)cn1 [Example 398, 2-(4-(6-((4-chloro-6-(methylcarbamoyl)pyridin-3-yl)methoxy)pyridin-2-yl)-2,3,6-trifluorobenzyl)-4-fluoro-1-((1-(fluoromethyl)cyclopropyl)methyl)-1H-benzo[d]imidazole-6-carboxylic acid]
13.7 | O=C(O)c1ccc2nc(Cc3cc(F)c(-c4cccc(OCc5cn6cccnc6n5)n4)cc3F)n(C[C@@H]3CCO3)c2c1 [Example 29, (S)-2-(2,5-difluoro-4-(6-(imidazo[1,2-a]pyrimidin-2-ylmethoxy)pyridin-2-yl)benzyl)-1-(oxetan-2-ylmethyl)-1H-benzo[d]imidazole-6-carboxylic acid]
